In series [1] the test system is aflatoxines produced by Aspergillus parasiticus. Description: microbe, parasite or virus in culture. Type of series: cell-based.
Series [2] has as its system Sphaerotheca fuliginea. In words: In vivo preventive test on Sphaerotheca fuliginea (cucumber). To be noted: 500 ppm of active ingredient, evaluated 7 days after inoculation. As to the method: Solvent: 49 parts by weight of N,N-dimethylformamide Emulsifier: 1 part by weight of Alkylarylpolyglycolether To produce a suitable preparation of active compound, 1 part by weight of active compound is mixed with the stated amounts of solvent and emulsifier, and the concentrate is diluted with water to the desired concentration. To test for preventive activity, young plants are sprayed with the preparation of active compound at the stated rate of application. One day after this treatment, the plants are inoculated with an aqueous spore suspension of Sphaerotheca fuliginea. Then the plants are placed in a greenhouse at approximately 23° C. and a relative atmospheric humidity of approximately 70%.

The subject of series [3] is Pyrenophora teres. Description: In vivo preventive test on Pyrenophora teres (barley). The note with it: 500 ppm of active ingredient, evaluated 7-9 days after inoculation. The method in brief:
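Compound formulated in N,N-dimethylformamide with alkylaryl polyglycol ether emulsifier and diluted in water, then sprayed on young barley plants at the stated application rate. Plants inoculated one day later with aqueous Pyrenophora teres spore suspension, testing preventive protection.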

In series [4] the test system is Alternaria solani. Description: In vivo preventive test on Alternaria solani (tomato). The note with it: 500 ppm of active ingredient, evaluated 7 days after inoculation. The method in brief: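 Young tomato plants sprayed preventively with compound in DMF/alkylarylpolyglycolether emulsion diluted in water to the stated rate. Inoculation with aqueous Alternaria solani spore suspension one day after treatment.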

For series [5], the system named is Puccinia triticina. In words: In vivo preventive test on Puccinia triticina (wheat).
Series [6] can be described thus: log P by HPLC on reversed-phase column (EEC Directive 79/831 Annex V.A8). Type of series: physicochemical. As to the method:
In table 1, the log P values were determined in accordance with EEC Directive 79/831 Annex V.A8 by HPLC (High Performance Liquid Chromatography) on a reversed-phase column (C18), using the method described below: Temperature: 40° C.; […]

In series [7] the test system is Aspergillus parasiticus. Description: microbe, parasite or virus in culture. Type of series: cell-based.
The subject of series [8] is Leptosphaeria nodorum. In words: In vivo preventive test on Leptosphaeria nodorum (wheat). To be noted: 500 ppm of active ingredient, evaluated 7-9 days after inoculation. The protocol:
Solvent: 49 parts by weight of N,N-dimethylacetamide Emulsifier: 1 part by weight of alkylaryl polyglycol ether To produce a suitable preparation of active compound, 1 part by weight of active compound is mixed with the stated amounts of solvent and emulsifier, and the concentrate is diluted with water to the desired concentration. To test for preventive activity, young plants are sprayed with a preparation of active compound at the stated rate of application. One day after this treatment, the plants are inoculated with an aqueous spore suspension of Leptosphaeria nodorum.

The subject of series [9] is Botrytis cinerea. In words: In vivo preventive test on Botrytis cinerea (beans). The protocol: Solvent: 24.5 parts by weight of acetone • 24.5 parts by weight of N,N-dimethylacetamide
Emulsifier: 1 part by weight of alkylaryl polyglycol ether
To produce a suitable preparation of active compound, 1 part by weight of active compound is mixed with the stated amounts of solvent and emulsifier, and the concentrate is diluted with water to the desired concentration.
To test for preventive activity, young plants are sprayed with the preparation of active compound. After the spray coating has dried on, 2 small pieces of agar covered with growth of Botrytis cinerea are placed on each leaf. The inoculated plants are placed in a darkened chamber at 20° C. and a relative atmospheric humidity of 100%.
2 days after the inoculation, the size of the lesions on the leaves is evaluated. 0% means an efficacy which corresponds to that of the untreated control, while an efficacy of 100% means that no disease is observed.

Series [10] concerns Venturia inaequalis. Description: In vivo preventive test on Venturia inaequalis (apple scab). To be noted: 100 ppm of active ingredient, evaluated 10 days after inoculation. The protocol: Solvent: 24.5 parts by weight of acetone • 24.5 parts by weight of N,N-dimethylacetamide Emulsifier: 1 part by weight of alkylaryl polyglycol ether To produce a suitable preparation of active compound, 1 part by weight of active compound is mixed with the stated amounts of solvent and emulsifier, and the concentrate is diluted with water to the desired concentration. To test for preventive activity, young plants are sprayed with the preparation of active compound at the stated rate of application.

Series [11] deals with Septoria tritici. In words: In vivo preventive test on Septoria tritici (wheat). To be noted: 500 ppm of active ingredient, evaluated 21 days after inoculation. As to the method: Solvent: 49 parts by weight of N,N-dimethylacetamide Emulsifier: 1 part by weight of alkylaryl polyglycol ether To produce a suitable preparation of active compound, 1 part by weight of active compound or active compound combination is mixed with the stated amounts of solvent and emulsifier, and the concentrate is diluted with water to the desired concentration. To test for preventive activity, young plants are sprayed with the preparation of active compound or active compound combination at the stated rate of application. After the spray coating has been dried, the plants are sprayed with a spore suspension of Septoria tritici.

Where [12] appears, read: Table K, 500 ppm of active ingredient, evaluated 8 days after inoculation.
The mark [13] stands for this setting: Table L, 500 ppm of active ingredient, lesion size 2 days after inoculation.
Where [14] appears, read: 500 ppm of active ingredient, lesion size 2 days after inoculation.
Where [15] appears, read: Table L5, dose 500 ppm, comparison with des-fluoro analogues.
Setting [16] is: 500 ppm of active ingredient, evaluated 8 days after inoculation.
Setting [17] is: Puccinia triticina, 192 h, Table K5, dose 500 ppm, comparison with des-fluoro analogues, read-out: Efficacy.
The mark [18] stands for this setting: Table L2, dose 500 ppm, comparison with des-fluoro analogues.

Like-named read-outs stand apart in the source and are kept apart here.

Regarding `CC1CC(N(C(=O)c2c(C(F)F)nn(C)c2F)C2CC2)CC(C)(C)C1` (stereo not shown) [Example 322], the “% Inhibition of Aflatoxin at 50 μM” value in [1] worked out at 100%. For the same compound, the Efficacy is recorded as 90% in series [2]; 100% in series [3]; 90% in series [4]; 95% in series [5] (setting [12]); 90% in series [8]. The logP in series [6] amounted to 4.31. Moreover, the “% Inhibition of fungal growth at 50 μM” value in [7] is listed as 99%.
Consider `CC(N(C(=O)c1c(C(F)F)nn(C)c1Cl)C1CC1)C(C)(C)Cc1ccccc1` (stereo not shown) [Example 10], for which the Efficacy was found to be 95% in series [3], 90% in [4] and 85% in [9] (setting [13]). In [6], this compound displayed a logP of 4.27.
For the compound `CC(C)CC(C)C1CCCC1NC(=O)c1c(C(F)F)nn(C)c1F` (single isomer, unassigned) [Example 318], the “% Inhibition of Aflatoxin at 50 μM” value in series [1] is listed as 100%. Besides, the Efficacy was determined as 93% in [2], 100% in [3], 90% in series [4] and 70% in [8]. The same compound gave a logP in [6] of 4.27 isomer C. For the same compound, the “% Inhibition of fungal growth at 50 μM” value in series [7] (50 µM) amounted to 89%.
For `Cc1nn(C)c(F)c1C(=O)N(C1CC1)C1CCCCC1Oc1ccccc1` (stereo not shown) [compound CMP10, N-cyclopropyl-5-fluoro-1,3-dimethyl-N-(2-phenoxycyclohexyl)-1H-pyrazole-4-carboxamide, reference compound], the Efficacy result is recorded as “less than 30%” in series [9] (setting [14]) and 29% in series [9] (Table L4, dose 500 ppm, comparison with des-fluoro analogue).
As for `CCC(C)C(C)N(C(=O)c1c(C(F)F)nn(C)c1F)C1CC1` (mixture of isomers) [Example 302], the “% Inhibition of Aflatoxin at 50 μM” value in series [1] was found to be 100%. For the same compound, the Efficacy in [2] came to 98%; in series [3], 100%; in series [4], 95%; in [9] (setting [13]) it was 93%. Also, the “% Inhibition of fungal growth at 50 μM” value in [7] is recorded as 100%.
With `Cn1nc(C(F)F)c(C(=O)NC2(C3CCCCC3)CC2)c1F` [Example 381], the Efficacy in series [2] is recorded as 95%; in [3], 100%; in [4] it was 100%; in [9] (setting [13]) it was 88%. The same compound showed a logP in [6] of 3.11.
Turning to `Cn1nc(C(F)F)c(C(=O)N(C[Si](C)(C)Cc2ccc(Cl)cc2Cl)C2CC2)c1F` [Example 298], the “% Inhibition of Aflatoxin at 50 μM” value in [1] is given as 100%. Further, the Efficacy in series [2] came to 85%; in series [3], 100%; in series [4] it was 100%; in series [8], 95%. Also, the logP in [6] was determined as 5.03. Besides, the “% Inhibition of fungal growth at 50 μM” value in series [7] turned out to be 100%.
Consider `CC(CCc1c(Cl)cc(Cl)cc1Cl)N(C(=S)c1c(C(F)F)nn(C)c1F)C1CC1` (stereo not shown) [Example 219], for which, in series [1], the “% Inhibition of Aflatoxin at 50 μM” value was found to be 81%. The Efficacy in series [2] worked out at 100%; in series [3], 100%; in [4], 95%; in series [8], 90%. The compound also yielded a logP in series [6] of 5.81. In series [7], the “% Inhibition of fungal growth at 50 μM” value was 71%.
Take `Cn1cc(C(=O)N(C2CC2)C2CCCC(c3ccccc3)C2)c(C(F)F)n1` (stereo not shown) [compound CMP3, N-cyclopropyl-3-(difluoromethyl)-1-methyl-N-(3-phenylcyclohexyl)-1H-pyrazole-4-carboxamide, reference compound]: the results for the Efficacy in series [9] (setting [15]) and in [5] (setting [16]) were 0% and “no protection”, respectively. Further, the pest or weed control at 500 ppm in series [5] (setting [17]) worked out at 0%.
Compound `Cc1nn(C)c(F)c1C(=O)N(CC1CCCCC1c1ccccc1)C1CC1` (stereo not shown) [compound CMP9, N-cyclopropyl-5-fluoro-1,3-dimethyl-N-[(2-phenylcyclohexyl)methyl]-1H-pyrazole-4-carboxamide, reference compound] had an Efficacy in series [9] (setting [18]) of 13%.
Consider `CC(CC1CCCCC1NC(=O)c1c(C(F)F)nn(C)c1Cl)C1CC1` (stereo not shown) [Example 328], for which, in [1], the “% Inhibition of Aflatoxin at 50 μM” value stood at 100%. The Efficacy amounted to 100% in [2], 95% in series [3], 95% in series [4] and 80% in series [8]. In series [6], this compound came in with a logP of 4.28. For the same compound, in [7], the “% Inhibition of fungal growth at 50 μM” value is 91%.
As for `Cn1cc(C(=O)N(C2CC2)C2CCCCC2Cc2ccccc2)c(C(F)F)n1` (stereo not shown) [16 from WO-2010/094666, N-(2-benzylcyclohexyl)-N-cyclopropyl-3-(difluoromethyl)-1-methyl-1H-pyrazole-4-carboxamide, reference compound], the Efficacy in series [9] (setting [14]) was 29%; in series [9] (500 ppm of active ingredient, lesion size 2 days after inoculation, listed as example 16 disclosed in patent application WO-2010/094666), “less than 30%”; in [5] (100 ppm of active ingredient, evaluated 8 days after inoculation, listed as example 16 disclosed in patent application WO-2010/094666) it was “no protection”. For the same compound, the pest or weed control at 100 ppm in series [5] (Puccinia triticina, 192 h, 100 ppm of active ingredient, evaluated 8 days after inoculation, read-out: Efficacy) worked out at 0%. In addition, in [5] (Puccinia triticina, 192 h, 500 ppm of active ingredient, evaluated 8 days after inoculation, read-out: Efficacy), the pest or weed control at 500 ppm is under 60%.
Consider `Cc1nn(C)c(F)c1C(=O)N(C1CC1)C1CCCC(c2ccccc2)C1` (stereo not shown) [compound CMP2, N-cyclopropyl-5-fluoro-1,3-dimethyl-N-(3-phenylcyclohexyl)-1H-pyrazole-4-carboxamide, reference compound], for which the Efficacy is on record as 5% in [9] (setting [15]) and “no protection” in series [5] (setting [16]). Besides, the pest or weed control at 500 ppm in series [5] (setting [17]) was 0%.
For `CC(CC(C)(C)C)C1CCCCC1NC(=O)c1c(C(F)F)nn(C)c1F` (single isomer, unassigned) [Example 361], in [1], the “% Inhibition of Aflatoxin at 50 μM” value worked out at 100%. Besides, the Efficacy was 88% in [10]; 100% in series [11]; 91% in series [2]; 95% in series [3]; 95% in [4]; 90% in [5] (setting [12]). For the same compound, the logP in [6] stood at 4.89 isomer B. For the same compound, in series [7] (50 µM), the “% Inhibition of fungal growth at 50 μM” value amounted to 84%.
For the compound `Cn1nc(C(F)F)c(C(=O)N(C2CC2)C2CCCCC2Oc2ccccc2)c1F` (stereo not shown) [Example 247], the “% Inhibition of Aflatoxin at 50 μM” value in series [1] (50 µM) came to 93%. The Efficacy in [2] stood at 100%; in [3], 100%; in series [5] (setting [12]) it was 100%; in series [8], 95%. Moreover, the logP in [6] is on record as 4.21. In addition, in series [7] (50 µM), the “% Inhibition of fungal growth at 50 μM” value is 78%.
Take `CCC1(CNC(=O)c2c(C(F)F)nn(C)c2F)CCCCC1` [Example 366]: the Efficacy in [4] was determined as 90%; in series [9] (setting [13]), 84%. In series [6], this compound had a logP of 3.55.
In turn, `Cn1cc(C(=O)N(CC2CCCCC2c2ccccc2)C2CC2)c(C(F)F)n1` (stereo not shown) [compound CMP1, N-cyclopropyl-3-(difluoromethyl)-1-methyl-N-[(2-phenylcyclohexyl)methyl]-1H-pyrazole-4-carboxamide, reference compound] returned an Efficacy in series [9] (setting [18]) of 0%.
